How the values were obtained:
Assay type in all cases: biochemical
[1] = biological target: Eis_S83G (Mycobacterium tuberculosis, UniProt P9WFK7, S83G)
[2] = biological target: Eis_R37G (Mycobacterium tuberculosis, UniProt P9WFK7, R37G)
[3] = biological target: Eis_F84A (Mycobacterium tuberculosis, UniProt P9WFK7, F84A)
[4] = biological target: Eis_L63A (Mycobacterium tuberculosis, UniProt P9WFK7, L63A)
[5] = biological target: Eis_D26A (Mycobacterium tuberculosis, UniProt P9WFK7, D26A)
[6] = biological target: Eis_W36R (Mycobacterium tuberculosis, UniProt P9WFK7, W36R)
[7] = biological target: Eis_W36A (Mycobacterium tuberculosis, UniProt P9WFK7, W36A)
[8] = biological target: Eis_R37A (Mycobacterium tuberculosis, UniProt P9WFK7, R37A)
[9] = biological target: Eis_M65A (Mycobacterium tuberculosis, UniProt P9WFK7, M65A)

In the case of `NC[C@H]1O[C@H](O[C@H]2[C@H](O)[C@@H](O[C@H]3O[C@H](CO)[C@@H](O)[C@H](N)[C@H]3O)[C@H](N)C[C@@H]2N)[C@H](O)[C@@H](O)[C@@H]1O` [KAN, kanamycin], the Km [1] is reported as 432 ± 48 µM, the “increase in the catalytic efficiency of the enzyme” value [1] is reported as 2 fold and the kcat [1] is reported as 0.365 ± 0.013 s⁻¹. It also gave a Km [2] of 696 ± 44 µM, a kcat [2] of 0.215 ± 0.0017 s⁻¹ and a Km [3] of 569 ± 94 µM. It also gave a kcat [3] of 0.142 ± 0.012 s⁻¹, a Km [4] of 484 ± 93 µM and a kcat [4] of 0.323 ± 0.025 s⁻¹. For the same compound, the Km [5] was 1280 ± 360 µM, the “increase in the Km value of KAN from that for the wild-type enzyme” value [5] was 2.3 fold and the kcat [5] was 0.235 ± 0.0417 s⁻¹. The Km [6] was 352 ± 77 µM, the “decrease in the maximum turnover rate” value [6] was 3.3 fold and the “increase of the binding affinity to KAN” value [6] was 1.6 fold. For the same compound, the kcat [6] was 0.0733 ± 0.0067 s⁻¹, the Km [7] was 556 ± 148 µM and the kcat [7] was 0.138 ± 0.0167 s⁻¹. For the same compound, the Km [8] was 971 ± 166 µM, the kcat [8] was 0.158 ± 0.005 s⁻¹ and the Km [9] was 247 ± 19 µM. For the same compound, the “increase in the catalytic efficiency from that of the wild-type enzyme” value [9] was 4.6 fold, the kcat [9] was 0.495 ± 0.015 s⁻¹ and the “maximum turnover rate, fold higher” value [9] was 2 fold.

From article PMC7337102 (ACS infectious diseases, 2019)
